Measured values: US6670339B1, “Use of sulfated oligosaccharides in lowering blood triglyceride levels” (The Australian National University, priority 1997, dated 2003)
Where two headings read alike, the source gives them in different places.

Columns and labels:
[1] = test system: serum triglyceride levels; test: Serum triglyceride lowering by glycosaminoglycans and sulfated oligosaccharides in mice; assay type: in vivo, CBA/h female mice; settings: 50 mg/kg s.c., 2 hours after injection
Experimental: FIG. 3. Ability of different glycosaminoglycans and sulfated oligosaccharides to lower serum triglyceride levels in CBA mice. Compounds were injected s.c. at a dose of 50 mg/kg, blood samples taken 2 hours later and assayed for triglyceride content. Each histogram is the mean±SEM (n=3) for each treatment.
Mice (CBA/h female mice 8-10 weeks old) were injected s.c. with a range of glycosaminoglycans and sulfated oligosaccharides at a dose of 50 mg/kg and 2 hours later mice were anaesthetised, blood was collected via cardiac puncture and allowed to clot and serum triglyceride levels measured using a commercially available kit (Sigma, Triglyceride—GPO-Trinder). […] The only other compound with some activity was suramin, a sulfonated compound which has previously been used as an angiogenesis and heparanase inhibitor.

[2] = target: T1, bovine milk lipoprotein lipase (Bos taurus, UniProt P11151); test: Inhibition of binding of biotinylated heparin/heparan sulfate to immobilised lipoprotein lipase; settings: for inhibitory activity on lipoprotein lipase binding to heparin/heparan sulfate, in words: summary of Table 1
T1 construct: purified from bovine milk as previously described; from tissue; host or cells: bovine milk
T1 sequence (P11151 29-478): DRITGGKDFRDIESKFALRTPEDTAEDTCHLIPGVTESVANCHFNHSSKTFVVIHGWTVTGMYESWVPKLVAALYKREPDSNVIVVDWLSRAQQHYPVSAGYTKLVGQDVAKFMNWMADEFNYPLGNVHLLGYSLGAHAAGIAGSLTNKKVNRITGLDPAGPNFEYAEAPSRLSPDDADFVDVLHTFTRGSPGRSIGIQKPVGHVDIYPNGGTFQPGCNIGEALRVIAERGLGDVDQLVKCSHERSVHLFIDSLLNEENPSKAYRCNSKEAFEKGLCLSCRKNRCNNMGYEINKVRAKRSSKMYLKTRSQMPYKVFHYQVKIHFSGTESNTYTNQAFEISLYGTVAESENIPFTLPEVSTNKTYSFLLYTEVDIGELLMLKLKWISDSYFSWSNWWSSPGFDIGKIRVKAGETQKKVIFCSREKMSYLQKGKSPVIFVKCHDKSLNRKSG
Experimental: As a more rapid and direct means of measuring the ability of different sulfated oligosaccharides to release lipoprotein lipase from the endothelium, an in vitro assay for this effect was developed. The assay involved immobilising lipoprotein lipase (10 μg/ml in PBS, 15 hr, 4° C.), purified from bovine milk as previously described^12, in 96 well plastic microplates (50 μl/well). Non-specific binding sites were then blocked by the addition of 200 μl/well of PBS containing 1% (w/v) bovine serum albumin (BSA) for 2 hr at 4° C. Following three washes with 200 μl/well of PBS/0.05% Tween 20 (PBST), 50 μl/well of either biotinylated bovine lung heparin or biotinylated porcine mucosal heparan sulfate (Sigma), used at either 1 or 10 μg/ml, was added and incubated for 2 hr at 4° C. Following three washes with PBST, 50 μl/well of europeum-streptavidin (1 ng/ml in PBS/1% BSA) was added for 1 hr at 4° C., the plate again washed three times with PBST, enhancement solution (50 μl/well) added and bound europeum measured by time resolved fluorescence detection using a Delfia Research Fluorometer (Wallac, Turku, Finland). Inhibition assays measured the ability of different sulfated oligosacchandes to inhibit the binding of biotinylated heparan/heparin sulfate to the immobilised lipoprotein lipase enzyme.

[3] = biotinylated bovine lung heparin 1 μg/ml
[4] = biotinylated bovine lung heparin 10 μg/ml

| Compound | IC50, inhibition of binding of Biotinylated Heparin (1 μg/ml) to lipoprotein lipase [2, 3] [µg/mL] | IC50, inhibition of binding of Biotinylated Heparin (10 μg/ml) to lipoprotein lipase [2, 4] [µg/mL] | inhibitory activity on lipoprotein lipase binding to heparin/heparan sulfate, in words [2] | IC50 ([2]; biotinylated bovine lung heparin 1 μg/ml, read-out: IC50, inhibition of binding of Biotinylated Heparin (1 μg/ml) to lipoprotein lipase) [µM] | IC50 ([2]; biotinylated bovine lung heparin 10 μg/ml, read-out: IC50, inhibition of binding of Biotinylated Heparin (10 μg/ml) to lipoprotein lipase) [µM] | effect on serum triglyceride levels, in words [1] |
| --- | --- | --- | --- | --- | --- | --- |
| maltoheptaose sulfate [Maltoheptaose SO4] | 3 | 12 | inhibitory | – | – | significantly lowered triglyceride levels |
| Cellohexaose | – | 12 | exhibited activity | – | – | – |

More lines, main results first:

| IC50, inhibition of binding of Biotinylated Heparin (1 μg/ml) to lipoprotein lipase [2, 3] [µg/mL] | IC50, inhibition of binding of Biotinylated Heparin (10 μg/ml) to lipoprotein lipase [2, 4] [µg/mL] | inhibitory activity on lipoprotein lipase binding to heparin/heparan sulfate, in words [2] | IC50 ([2]; biotinylated bovine lung heparin 1 μg/ml, read-out: IC50, inhibition of binding of Biotinylated Heparin (1 μg/ml) to lipoprotein lipase) [µM] | IC50 ([2]; biotinylated bovine lung heparin 10 μg/ml, read-out: IC50, inhibition of binding of Biotinylated Heparin (10 μg/ml) to lipoprotein lipase) [µM] | Compound | effect on serum triglyceride levels, in words [1] |
| --- | --- | --- | --- | --- | --- | --- |
| >200 | – | lacked activity | – | – | O=S(=O)(O)OC[C@H]1O[C@@](COS(=O)(=O)O)(O[C@H]2O[C@H](COS(=O)(=O)O)[C@@H](OS(=O)(=O)O)[C@H](OS(=O)(=O)O)[C@H]2OS(=O)(=O)O)[C@@H](OS(=O)(=O)O)[C@@H]1OS(=O)(=O)O [Sucrose octasulfate, reference compound] | small but significant enhancement |
| 3 | 6 | potent inhibitors | – | – | maltohexaose sulfate [Maltohexaose SO4] | significantly lowered triglyceride levels |
| – | – | lacked activity | > 77.1 | > 77.1 | Cc1ccc(C(=O)Nc2ccc(S(=O)(=O)O)c3cc(S(=O)(=O)O)cc(S(=O)(=O)O)c23)cc1NC(=O)c1cccc(NC(=O)Nc2cccc(C(=O)Nc3cc(C(=O)Nc4ccc(S(=O)(=O)O)c5cc(S(=O)(=O)O)cc(S(=O)(=O)O)c45)ccc3C)c2)c1 [Suramin, reference compound] | some activity |
